Reference: ChEMBL document CHEMBL5532681, “Cannabidiol Inhibits Epithelial Ovarian Cancer: Role of Gut Microbiome” (J Nat Prod, 2024)
The source made the active and inactive calls. The calls are words filed in the database; no cut-off is given here.

Experiments:
[1] = Downregulation of MMP-9 expression in human A2780 cells at 12 uM by Westernblot analysis relative to control; format: functional
A2780 [2] = assay: Antitumor activity against human A2780 cells xenografted in BALB/c female nude mouse assessed as disordered tumor cells at 10 to 20 mg/kg, ip administrated for 28 days by HE staining based analysis; format: functional, organism-based; details: dose 10-20 mg/kg, time 28.0 day
A2780 [3] = assay: Antiproliferative activity against human A2780 cells assessed as decrease in cell viability incubated for 24 to 72 hrs by CCK-8 assay; format: functional, cell-based; details: time 24-72 hrs
ES-2 [4] = assay: Inhibition of cell invasion in human ES2 cells assessed as decrease in invasion rate at 6 uM incubated for 48 hrs by transwell assay; format: functional; set-up: scale not given: the % may be the effect or the level left
A2780 [5] = assay: Antitumor activity against human A2780 cells xenografted in BALB/c female nude mouse assessed as decrease in body weight at 10 to 20 mg/kg, ip administered on day 24 and measured every other day for 45 days; format: functional, organism-based; details: dose 10-20 mg/kg, time 45.0 day
ES-2 [6] = assay: Inhibition of cell migration in human ES2 cells assessed as decrease in migration distance at 6 uM incubated for 24 hrs by wound healing assay relative to control; format: functional; set-up: scale not given: the % may be the effect or the level left
A2780 [7] = assay: Antitumor activity against human A2780 cells xenografted in BALB/c female nude mouse assessed as reduction in cells with hyaline cytoplasm at 10 to 20 mg/kg, ip administrated for 28 days by HE staining based analysis; format: functional, organism-based; details: dose 10-20 mg/kg, time 28.0 day
A2780 [8] = assay: Inhibition of cell migration in human A2780 cells assessed as decrease in migration distance at 12 uM incubated for 24 hrs by wound healing assay relative to control; format: functional; set-up: scale not given: the % may be the effect or the level left
A2780 [9] = assay: Antitumor activity against human A2780 cells xenografted in BALB/c female nude mouse assessed as decrease in tumor weight at 10 to 20 mg/kg, ip administered on day 24 and measured every other day for 45 days; format: functional, organism-based; details: dose 10-20 mg/kg, time 45.0 day
[10] = Downregulation of MMP-2 expression in human A2780 cells at 12 uM by Westernblot analysis relative to control; format: functional
ES-2 [11] = assay: Downregulation of EGFR expression in human ES2 cells by Westernblot analysis; format: functional, cell-based
ES-2 [12] = assay: Downregulation of AKT expression in human ES2 cells by Westernblot analysis; format: functional, cell-based
A2780 [13] = assay: Antitumor activity against human A2780 cells xenografted in BALB/c female nude mouse assessed as reduction in EGFR positive cells at 20 mg/kg, ip administrated for 28 days by immunohistochemical analysis; format: functional, organism-based; details: time 28.0 day
ES-2 [14] = assay: Antiproliferative activity against human ES2 cells assessed as decrease in cell viability incubated for 24 to 72 hrs by CCK-8 assay; format: functional, cell-based; details: time 24-72 hrs
ES-2 [15] = assay: Downregulation of MMP-9 expression in human ES2 cells by Westernblot analysis; format: functional, cell-based
[16] = Downregulation of EGFR expression in human ES2 cells at 12 uM by Westernblot analysis relative to control; format: functional, ES-2
A2780 [17] = assay: Downregulation of AKT expression in human A2780 cells by Westernblot analysis; format: functional, cell-based
A2780 [18] = assay: Antiproliferative activity against human A2780 cells assessed as decrease in cell viability at 12 uM incubated for 24 hrs by crystal violet staining based assay relative to control; format: functional
A2780 [19] = assay: Anticancer activity against human A2780 cells xenografted in BALB/c female nude mouse assessed as increase in abundance of alistipes at 10 to 20 mg/kg, ip administrated for 28 days; format: functional, organism-based; details: dose 10-20 mg/kg, time 28.0 day
A2780 [20] = assay: Inhibition of cell invasion in human A2780 cells assessed as decrease in invasion rate at 6 uM incubated for 48 hrs by transwell assay; format: functional; set-up: scale not given: the % may be the effect or the level left
ES-2 [21] = assay: Inhibition of cell migration in human ES2 cells assessed as decrease in migration distance at 3 uM incubated for 24 hrs by wound healing assay relative to control; format: functional; set-up: scale not given: the % may be the effect or the level left
ES-2 [22] = assay: Downregulation of MMP-2 expression in human ES2 cells by Westernblot analysis; format: functional, cell-based
A2780 [23] = assay: Downregulation of MMP-2 expression in human A2780 cells by Westernblot analysis; format: functional, cell-based
A2780 [24] = assay: Inhibition of cell migration in human A2780 cells assessed as decrease in migration distance at 6 uM incubated for 24 hrs by wound healing assay relative to control; format: functional; set-up: scale not given: the % may be the effect or the level left
A2780 [25] = assay: Inhibition of cell migration in human A2780 cells assessed as decrease in migration distance at 3 uM incubated for 24 hrs by wound healing assay relative to control; format: functional; set-up: scale not given: the % may be the effect or the level left
ES-2 [26] = assay: Inhibition of cell invasion in human ES2 cells assessed as decrease in invasion rate at 12 uM incubated for 48 hrs by transwell assay; format: functional; set-up: scale not given: the % may be the effect or the level left
ES-2 [27] = assay: Antiproliferative activity against human ES2 cells assessed as decrease in cell viability at 3 to 12 uM by CCK-8 assay; format: functional, cell-based; details: dose 3-12 µM, TDE = time-dependent effect
ES-2 [28] = assay: Antiproliferative activity against human ES2 cells assessed as decrease in cell viability at 3 to 12 uM incubated for 24 hrs by crystal violet staining based assay; format: functional; details: dose 3-12 µM
A2780 [29] = assay: Antitumor activity against human A2780 cells xenografted in BALB/c female nude mouse assessed as irregular tumor shape at 10 to 20 mg/kg, ip administrated for 28 days by HE staining based analysis; format: functional, organism-based; details: dose 10-20 mg/kg, time 28.0 day
A2780 [30] = assay: Antitumor activity against human A2780 cells xenografted in BALB/c female nude mouse assessed as decrease in AKT positive cells at 10 to 20 mg/kg, ip administrated for 28 days by immunohistochemical analysis; format: functional, organism-based; details: dose 10-20 mg/kg, time 28.0 day
A2780 [31] = assay: Downregulation of MMP-9 expression in human A2780 cells by Westernblot analysis; format: functional, cell-based
ES-2 [32] = assay: Inhibition of cell invasion in human ES2 cells assessed as decrease in invasion rate 3 uM incubated for 48 hrs by transwell assay; format: functional; set-up: scale not given: the % may be the effect or the level left
A2780 [33] = assay: Antiproliferative activity against human A2780 cells assessed as decrease in cell viability at 3 to 12 uM incubated for 24 hrs by crystal violet staining based assay; format: functional; details: dose 3-12 µM
[34] = Downregulation of MMP-2 expression in human ES2 cells at 12 uM by Westernblot analysis relative to control; format: functional, ES-2
A2780 [35] = assay: Inhibition of cell invasion in human A2780 cells assessed as decrease in invasion rate at 12 uM incubated for 48 hrs by transwell assay; format: functional; set-up: scale not given: the % may be the effect or the level left
A2780 [36] = assay: Anticancer activity against human A2780 cells xenografted in BALB/c female nude mouse assessed as increase in intestinal microbial diversity at 10 to 20 mg/kg, ip administrated for 28 days; format: functional, organism-based; details: dose 10-20 mg/kg, time 28.0 day
[37] = Toxicity in human A2780 cells xenografted in BALB/c female nude mouse assessed as effect on spleen index at 10 to 20 mg/kg, ip administered on day 24 and measured every other day for 45 days; format: organism-based; details: in vivo, 1080 h, dose 10-20 mg/kg, time 45 day
[38] = Toxicity in human A2780 cells xenografted in BALB/c female nude mouse assessed as effect on body weight at 10 to 20 mg/kg, ip administered on day 24 and measured every other day for 45 days; format: organism-based; details: in vivo, 1080 h, dose 10-20 mg/kg, time 45 day
[39] = Downregulation of MMP-9 expression in human ES2 cells at 12 uM by Westernblot analysis relative to control; format: functional, ES-2
A2780 [40] = assay: Inhibition of cell invasion in human A2780 cells assessed as decrease in invasion rate at 3 uM incubated for 48 hrs by transwell assay; format: functional; set-up: scale not given: the % may be the effect or the level left
ES-2 [41] = assay: Antiproliferative activity against human ES2 cells assessed as decrease in cell viability at 12 uM incubated for 24 hrs by crystal violet staining based assay relative to control; format: functional
ES-2 [42] = assay: Inhibition of cell migration in human ES2 cells assessed as decrease in migration distance at 12 uM incubated for 24 hrs by wound healing assay relative to control; format: functional; set-up: scale not given: the % may be the effect or the level left
A2780 [43] = assay: Antitumor activity against human A2780 cells xenografted in BALB/c female nude mouse assessed as decrease in tumor growth rate at 10 to 20 mg/kg, ip administered on day 24 and measured every other day for 45 days; format: functional, organism-based; details: dose 10-20 mg/kg, time 45.0 day
A2780 [44] = assay: Antiproliferative activity against human A2780 cells assessed as decrease in cell viability at 3 to 12 uM by CCK-8 assay; format: functional, cell-based; details: dose 3-12 µM, TDE = time-dependent effect
A2780 [45] = assay: Anticancer activity against human A2780 cells xenografted in BALB/c female nude mouse assessed as decrease in abundance of firmicutes at 10 to 20 mg/kg, ip administrated for 28 days; format: functional, organism-based; details: dose 10-20 mg/kg, time 28.0 day
[46] = Downregulation of EGFR expression in human A2780 cells at 12 uM by Westernblot analysis relative to control; format: functional
A2780 [47] = assay: Downregulation of EGFR expression in human A2780 cells by Westernblot analysis; format: functional, cell-based
A2780 [48] = assay: Antitumor activity against human A2780 cells xenografted in BALB/c female nude mouse assessed as decrease in tumor volume at 10 to 20 mg/kg, ip administered on day 24 and measured every other day for 45 days; format: functional, organism-based; details: dose 10-20 mg/kg, time 45.0 day

For `C=C(C)[C@@H]1CCC(C)=C[C@H]1c1c(O)cc(CCCCC)cc1O` [CANNABIDIOL], the Activity [1] was 77%, the Activity (A2780 [2]) was “Active” and the Activity (A2780 [3]) was “Dose-Dependent Effect”. For the same compound, the Activity (ES-2 [4]) was 39%, the Activity (A2780 [5]) was “Active” and the Activity (ES-2 [6]) was 53%. The Activity (A2780 [7]) was “Active”, the Activity (A2780 [8]) was 52% and the Activity (A2780 [9]) was “Active”. The Activity [10] was 77%, the Activity (ES-2 [11]) was “Dose-Dependent Effect” and the Activity (ES-2 [12]) was “Dose-Dependent Effect”. For the same compound, the Activity (A2780 [13]) was “Active”, the Activity (ES-2 [14]) was “Dose-Dependent Effect” and the Activity (ES-2 [15]) was “Dose-Dependent Effect”. For the same compound, the Activity [16] was 79%, the Activity (A2780 [17]) was “Dose-Dependent Effect” and the Activity (A2780 [18]) was 27%. The Activity (A2780 [19]) was “Active”, the Activity (A2780 [20]) was 56% and the Activity (ES-2 [21]) was 73%. The Activity (ES-2 [22]) was “Dose-Dependent Effect”, the Activity (A2780 [23]) was “Dose-Dependent Effect” and the Activity (A2780 [24]) was 62%. For the same compound, the Activity (A2780 [25]) was 75%, the Activity (ES-2 [26]) was 32% and the Activity (ES-2 [27]) was “Tde”. The Activity (ES-2 [28]) was “Dose-Dependent Effect”, the Activity (A2780 [29]) was “Active” and the Activity (A2780 [30]) was “Active”. The Activity (A2780 [31]) was “Dose-Dependent Effect”, the Activity (ES-2 [32]) was 80% and the Activity (A2780 [33]) was “Dose-Dependent Effect”. For the same compound, the Activity [34] was 77%, the Activity (A2780 [35]) was 61% and the Activity (A2780 [36]) was “Active”. For the same compound, the Activity [37] was “Non-Toxic”, the Activity [38] was “Non-Toxic” and the Activity [39] was 81%. It also gave an Activity (A2780 [40]) of 71%, an Activity (ES-2 [41]) of 24% and an Activity (ES-2 [42]) of 26%. For the same compound, the Activity (A2780 [43]) was “Active”, the Activity (A2780 [44]) was “Tde” and the Activity (A2780 [45]) was “Active”. The Activity [46] was 58%, the Activity (A2780 [47]) was “Dose-Dependent Effect” and the Activity (A2780 [48]) was “Active”.
